The source of these data is PubChem BioAssay (NCI).

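Cells were grown in 96-well plates and exposed to each compound for 48 hours at five concentrations; endpoints were interpolated linearly between bracketing concentrations, or set to the highest concentration if not reached. GI50 marks 50% less growth. TGI is the concentration that stops growth completely.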

Holding throughout (assay): inhibition of tumour cell growth, NCI panel, 48 h
In assay [1] the test system is U251 CNS.
Assay [2] has as its system UACC-257 melanoma.
Assay [3] has as its system HL-60(TB) leukemia.
The test system of assay [4] is HS 578T breast.
The subject of assay [5] is OVCAR-3 ovarian.
Assay [6] has as its system OVCAR-5 ovarian.
The test system of assay [7] is A498 renal.
Assay [8] deals with SK-MEL-28 melanoma.
In assay [9] the test system is NCI-H23 lung.

Take `CC1=C(C(=O)Nc2ccc(Cl)c(Cl)c2)C(c2cccc(O)c2)NC(=S)N1` (configuration not stated): the GI50 in assay [1] was 8.82 µM; in assay [2], 12.5 µM; in assay [3], 11.2 µM; in assay [4], 9.5 µM; in assay [5], 5.69 µM; in assay [6] it was over 50 µM. For the same molecule, the TGI is 18.1 µM in assay [1]; over 50 µM in assay [2]; 44.2 µM in assay [3]; 24.9 µM in assay [4]; 12.5 µM in assay [5]; over 50 µM in assay [6].
For `C=C1CCC2C(C)(CO)C(O)CCC2(C)C1CC(O)C1=CCOC1=O` (configuration not stated), the TGI in assay [1] is 50.7 µM; in assay [2], over 100 µM; in assay [7], over 100 µM; in [8], over 100 µM; in assay [3], 85.9 µM; in assay [5], 58.9 µM. Besides, the TGI in [6] and in assay [9] was over 100 µM each time.
On to `COc1ccc2c(c1)CC[C@@H]1[C@@H]2CC[C@]2(C)c3c(cc(C(=O)c4ccccc4)c4sccc34)C[C@@H]12`, for which the GI50 in [1] is over 100 µM; in [2], over 100 µM; in assay [7] it was over 100 µM; in assay [8], over 100 µM; in [3], 6.73 µM; in assay [4] it was over 100 µM. In addition, the values for the GI50 in assay [5], in assay [6] and in assay [9] were over 100 µM, 60.7 µM and over 100 µM, respectively. Further, the TGI in [1], in assay [2], in assay [7], in assay [8], in assay [3] and in assay [4] was over 100 µM throughout. For the same molecule, the TGI in [5], in assay [6] and in assay [9] was over 100 µM each time.
Regarding `Cn1c(-c2ccccc2)c/c(=N\NS(C)(=O)=O)c2cc(S(=O)(=O)O)ccc21`, the TGI in [1], in [2], in assay [8], in assay [3], in [5] and in [6] was over 100 µM in each case. In assay [9], the TGI was over 100 µM.
Regarding `COC(=O)c1cc(O)ccc1NC(=O)c1ccc(O)cc1`, the TGI in [1], in [2], in assay [8], in [3], in [5] and in [6] was over 100 µM throughout. The molecule further yielded a TGI in [9] of over 100 µM.
On to `O=[N+]([O-])c1ccc(C2N3CCCCC3[C@@H]3c4[nH]c5ccccc5c4CCN23)cc1` (some centres not stated), for which the TGI is 58.1 µM in assay [1]; 41.2 µM in [2]; 36.5 µM in assay [7]; 42 µM in assay [8]; over 100 µM in assay [3]; 38.6 µM in [5]. Besides, the TGI in assay [6] was 56.5 µM; in [9] it was 35.7 µM.
`O=C1CC23CC(=O)CC2(C1)c1ccccc1C3=O` (configuration not stated): the TGI in assay [1], in assay [2], in assay [8], in [3], in assay [5] and in assay [6] was over 100 µM in each case. Also, the TGI in assay [9] is over 100 µM.
For the molecule `Cn1c(C2CC(C)(C)c3c2c2ccccc2n3C)cc2ccccc21` (configuration not stated), the TGI in [1], in [2], in [8], in assay [3], in [5] and in assay [6] was over 304 µM throughout. In addition, the TGI in assay [9] is over 304 µM.
On to `COc1cc([C@@H]2c3cc4c(cc3[C@@H](NC(=O)c3ccc([N+](=O)[O-])cc3)C3COC(=O)[C@@H]32)OCO4)cc(OC)c1O` (some centres not stated), for which the TGI in assay [1] amounted to 1.21 µM; in assay [2], 59.6 µM; in assay [7], 3.9 µM; in assay [8] it was 89 µM; in assay [3], 0.407 µM; in [5], 4.81 µM. Besides, the TGI in assay [6] is 76.2 µM; in assay [9] it was 1.46 µM.
Regarding `CC(C)(C)C1CCN(C(=O)c2ccccc2)CC1`, the TGI in [1], in assay [2], in assay [7], in assay [3], in [5] and in assay [6] was over 100 µM in each case. The molecule also had a TGI in assay [9] of over 100 µM.
Take `C[C@H]1[C@H](C)CC[C@]2(C(=O)O)CC[C@]3(C)C(=CC[C@@H]4[C@@]5(C)CC[C@H](OC(=O)/C=C\c6ccc(O)cc6)C(C)(C)[C@@H]5CC[C@]43C)[C@H]12`: the GI50 in [1] is 2 µM; in assay [2] it was 1.46 µM; in [7], 15 µM; in [8], 18 µM; in [4], 3.1 µM; in assay [5] it was 3.05 µM. Moreover, the GI50 in assay [6] is 12.3 µM; in assay [9], 3.48 µM. The TGI in [1] was determined as 9.41 µM; in assay [2] it was 8.49 µM; in assay [7] it was 29.2 µM; in [8], 57 µM; in assay [4], 22.6 µM; in assay [5] it was 21.2 µM. The TGI is 27 µM in assay [6] and 15.9 µM in assay [9].
As for `COC(=O)C1CCc2nnc(-c3cccnc3)n21` (configuration not stated), the TGI in assay [1], in assay [2], in assay [7], in assay [8], in assay [3] and in assay [5] was over 100 µM each time.
With `O=c1[nH]c(C2CCCCC2)nc2cc(Cl)ccc12`, the TGI in [1], in [2], in assay [8], in assay [5], in assay [6] and in assay [9] was over 100 µM in each case.
`O=C(CCc1cc(-c2ccco2)n(-c2ccc([N+](=O)[O-])cc2[N+](=O)[O-])n1)Nc1ccccc1`: the TGI in assay [1], in [2], in [7], in [8], in assay [3] and in [6] was over 100 µM each time. This molecule also had a TGI in [9] of over 100 µM.
As for `FC(F)(F)c1ccccc1C=NC12CC3CC(CC(C3)C1)C2`, the TGI in assay [1], in assay [2], in assay [7], in assay [8], in assay [3] and in assay [5] was over 100 µM each time. In addition, the TGI in assay [6] and in [9] was over 100 µM each time.
